Reference: BindingDB's records for doi:10.1016/j.bmc.2007.06.041 (Seoul National University, 2007)

Target: Transient receptor potential cation channel subfamily V member 1 (Rattus norvegicus, UniProt O35433)
Assay: Competition Binding Assay and Inhibition of Ca2+ Uptake Assay
Details: pH 7.4; 37 °C
Procedure: Binding assay mixtures were set up and contained [3H] RTX, various concentrations of competing ligands, and rVR1-transfected CHO cells. Nonspecific binding was determined in the presence of 100 nM nonradioactive RTX. After the binding reaction, membrane-bound RTX was separated from the free by centrifugation, and the radioactivity was determined by scintillation counting. Equilibrium binding parameters (Ki, Bmax, and cooperativity) were determined by fitting the Hill equation to the measured values with the aid of the program Origin 6.0.

Sequence of Transient receptor potential cation channel subfamily V member 1 (O35433 whole entry): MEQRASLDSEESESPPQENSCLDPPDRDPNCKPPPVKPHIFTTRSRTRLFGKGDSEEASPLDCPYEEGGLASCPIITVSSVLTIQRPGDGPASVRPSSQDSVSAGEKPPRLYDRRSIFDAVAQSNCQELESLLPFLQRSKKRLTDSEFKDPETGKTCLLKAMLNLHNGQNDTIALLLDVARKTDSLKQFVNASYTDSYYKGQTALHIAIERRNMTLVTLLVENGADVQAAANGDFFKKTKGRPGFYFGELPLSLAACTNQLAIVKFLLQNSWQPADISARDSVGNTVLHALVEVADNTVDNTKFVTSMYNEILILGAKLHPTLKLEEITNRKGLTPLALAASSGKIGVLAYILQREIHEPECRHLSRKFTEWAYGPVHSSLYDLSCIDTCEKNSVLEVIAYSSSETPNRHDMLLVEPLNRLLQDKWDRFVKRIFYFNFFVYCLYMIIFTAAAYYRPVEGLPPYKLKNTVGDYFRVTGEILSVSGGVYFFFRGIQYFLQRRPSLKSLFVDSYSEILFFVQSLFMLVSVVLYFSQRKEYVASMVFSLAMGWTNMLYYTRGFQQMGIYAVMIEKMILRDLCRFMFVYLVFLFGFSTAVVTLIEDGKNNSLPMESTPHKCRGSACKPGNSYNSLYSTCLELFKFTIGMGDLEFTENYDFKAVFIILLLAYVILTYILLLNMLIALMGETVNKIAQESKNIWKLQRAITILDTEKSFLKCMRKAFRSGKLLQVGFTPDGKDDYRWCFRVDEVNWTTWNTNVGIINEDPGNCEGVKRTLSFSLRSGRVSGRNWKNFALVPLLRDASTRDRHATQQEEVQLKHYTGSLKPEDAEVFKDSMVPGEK

Compound	Ki
C[C@H](NC(=S)NCc1ccc(C(C)(C)C)cc1)c1ccc(NS(C)(=O)=O)c(F)c1 [3-[(4-tert-butylphenyl)methyl]-1-[(1S)-1-(3-fluoro-4-methanesulfonamidophenyl)ethyl]thiourea]	2670 nM
CC(C)(C)c1ccc(CNC(=S)NC(C)(C)c2ccc(NS(C)(=O)=O)cc2)cc1 [3-[(4-tert-butylphenyl)methyl]-1-[2-(4-methanesulfonamidophenyl)propan-2-yl]thiourea]	1800 nM
COc1cc(C2(NC(=S)NCc3ccc(C(C)(C)C)cc3)CC2)ccc1NS(C)(=O)=O [1-[(4-tert-butylphenyl)methyl]-3-[1-(4-methanesulfonamido-3-methoxyphenyl)cyclopropyl]thiourea]	243 nM
CC(C)(C)c1ccc(CNC(=S)NC(Cc2ccccc2)c2ccc(NS(C)(=O)=O)c(F)c2)cc1 (configuration not stated) [3-[(4-tert-butylphenyl)methyl]-1-[1-(3-fluoro-4-methanesulfonamidophenyl)-2-phenylethyl]thiourea]	700 nM
CC(C)(C)c1ccc(CNC(=S)NC(c2ccccc2)c2ccc(NS(C)(=O)=O)c(F)c2)cc1 (configuration not stated) [3-[(4-tert-butylphenyl)methyl]-1-[(3-fluoro-4-methanesulfonamidophenyl)(phenyl)methyl]thiourea]	860 nM
COc1cc(C(C)NC(=S)NCc2ccc(C(C)(C)C)cc2)ccc1NS(C)(=O)=O (configuration not stated) [3-[(4-tert-butylphenyl)methyl]-1-[1-(4-methanesulfonamido-3-methoxyphenyl)ethyl]thiourea]	28.6 nM
CCC(NC(=S)NCc1ccc(C(C)(C)C)cc1)c1ccc(NS(C)(=O)=O)c(F)c1 (configuration not stated) [3-[(4-tert-butylphenyl)methyl]-1-[1-(3-fluoro-4-methanesulfonamidophenyl)propyl]thiourea]	54 nM
CC(C)(C)c1ccc(CNC(=S)NC2(c3ccc(NS(C)(=O)=O)cc3)CC2)cc1 [1-[(4-tert-butylphenyl)methyl]-3-[1-(4-methanesulfonamidophenyl)cyclopropyl]thiourea]	60 nM
CC(C)C(NC(=S)NCc1ccc(C(C)(C)C)cc1)c1ccc(NS(C)(=O)=O)c(F)c1 (configuration not stated) [3-[(4-tert-butylphenyl)methyl]-1-[1-(3-fluoro-4-methanesulfonamidophenyl)-2-methylpropyl]thiourea]	223 nM
CC(NC(=S)NCc1ccc(C(C)(C)C)cc1)c1ccc(NS(C)(=O)=O)c(F)c1 (configuration not stated) [3-[(4-tert-butylphenyl)methyl]-1-[1-(3-fluoro-4-methanesulfonamidophenyl)ethyl]thiourea]	9.2 nM
CC(C)(C)c1ccc(CNC(=S)NCc2ccc(NS(C)(=O)=O)c(F)c2)cc1 [JYL1421]	9.2 nM
Oc1cc2c(cc1O)CN(C(=S)NCCc1ccc(Cl)cc1)CCC2 [N-[2-(4-chlorophenyl)ethyl]-7,8-dihydroxy-2,3,4,5-tetrahydro-1H-2-benzazepine-2-carbothioamide]	520 nM
C[C@@H](NC(=S)NCc1ccc(C(C)(C)C)cc1)c1ccc(NS(C)(=O)=O)cc1 [3-[(4-tert-butylphenyl)methyl]-1-[(1R)-1-(4-methanesulfonamidophenyl)ethyl]thiourea]	4.5 nM
CC(C)(C)c1ccc(CNC(=S)NC(C)(C)c2ccc(NS(C)(=O)=O)c(F)c2)cc1 [3-[(4-tert-butylphenyl)methyl]-1-[2-(3-fluoro-4-methanesulfonamidophenyl)propan-2-yl]thiourea]	980 nM
C[C@@H](NC(=S)NCc1ccc(C(C)(C)C)cc1)c1ccc(NS(C)(=O)=O)c(F)c1 [3-[(4-tert-butylphenyl)methyl]-1-[(1R)-1-(3-fluoro-4-methanesulfonamidophenyl)ethyl]thiourea]	37 nM
CC(NC(=S)NCc1ccc(C(C)(C)C)cc1)c1ccc(NS(C)(=O)=O)cc1 (configuration not stated) [3-[(4-tert-butylphenyl)methyl]-1-[1-(4-methanesulfonamidophenyl)ethyl]thiourea]	14.7 nM
COc1cc(C(C)(C)NC(=S)NCc2ccc(C(C)(C)C)cc2)ccc1NS(C)(=O)=O [3-[(4-tert-butylphenyl)methyl]-1-[2-(4-methanesulfonamido-3-methoxyphenyl)propan-2-yl]thiourea]	663 nM
